Results from patent publication US8410302B2, “Methoxyimino compounds and fungicide composition comprising same” (Kyung Nong Corporation, priority 2007, dated 2013).
Read-outs that look alike come from different tables or passages of the source.

Legend:
[1] = tested on: Botrytis cinerae; assay: Fungicidal activity against cucumber gray mold rot (CGM) disease, control value; type: in vivo; details: 100 ppm; for pest or weed control at 100 ppm: Botrytis, read-out: CGM control value (C.V.)
[2] = tested on: Phytophthora infestans; assay: whole plant or invertebrate; type: in vivo; details: for pest or weed control at 10 ppm / pest or weed control at 50 ppm / pest or weed control at 100 ppm / pest or weed control at 2 ppm: Phytophthora infestans, in Solanum lycopersicum, read-out: TLB control value (C.V.)
[3] = tested on: Puccinia recondita; assay: Fungicidal activity against wheat leaf rust (WLR) disease, control value; type: in vivo; details: for pest or weed control at 2 ppm / pest or weed control at 10 ppm / pest or weed control at 50 ppm / pest or weed control at 100 ppm: read-out: WLR control value (C.V.)
[4] = tested on: Pyricularia oryzae Carvara KA301; assay: whole plant or invertebrate; type: in vivo; details: for pest or weed control at 2 ppm / pest or weed control at 10 ppm / pest or weed control at 50 ppm / pest or weed control at 100 ppm: Pyricularia oryzae, read-out: RCB control value (C.V.)
[5] = tested on: Rhizoctonia solani AG-1; assay: Fungicidal activity against rice sheath blight (RSB) disease, control value; details: for pest or weed control at 100 ppm / pest or weed control at 2 ppm / pest or weed control at 10 ppm / pest or weed control at 50 ppm: Rhizoctonia solani, AG1, in Oryza sativa, read-out: RSB control value (C.V.)
[6] = tested on: Erysiphae graminis; assay: Fungicidal activity against barley powdery mildew (BPM) disease, control value; type: in vivo; details: for pest or weed control at 2 ppm / pest or weed control at 10 ppm / pest or weed control at 50 ppm / pest or weed control at 100 ppm: 168 h, read-out: BPM control value (C.V.)

CO/N=C(/C(=O)OC)c1ccccc1COc1c(C)cccc1C=C(Br)Br [Example 73, methyl-(E)-2-(2-((2-(2,2-dibromovinyl)-6-methylphenoxy)methyl)phenyl)-2-methoxyiminoacetate]
60%: pest or weed control at 10 ppm ([6]; 10 ppm)
90%: pest or weed control at 50 ppm [2] | pest or weed control at 10 ppm [4]
100%: pest or weed control at 100 ppm [2] | pest or weed control at 2 ppm ([3]; Puccinia recondita, 2 ppm) | pest or weed control at 10 ppm ([3]; Puccinia recondita, 10 ppm) | pest or weed control at 50 ppm ([3]; Puccinia recondita, 50 ppm) | pest or weed control at 100 ppm ([3]; Puccinia recondita, 100 ppm) | pest or weed control at 50 ppm [4] | pest or weed control at 100 ppm [4]
93%: pest or weed control at 50 ppm ([6]; 50 ppm)
20%: pest or weed control at 100 ppm [1]
70%: pest or weed control at 2 ppm [4]
95%: pest or weed control at 100 ppm ([6]; 100 ppm)
15%: pest or weed control at 2 ppm ([6]; 2 ppm)
10%: pest or weed control at 10 ppm [2] | pest or weed control at 100 ppm [5]

CO/N=C(/C(=O)OC)c1ccccc1COc1ccc(C=C(Br)Br)c(Cl)c1 [Example 81, methyl-(E)-2-(2-((4-(2,2-dibromovinyl)-3-chlorophenoxy)methyl)phenyl)-2-methoxyiminoacetate]
55%: pest or weed control at 2 ppm [5]
60%: pest or weed control at 100 ppm [1] | pest or weed control at 2 ppm [2]
95%: pest or weed control at 2 ppm ([3]; Puccinia recondita, 2 ppm)
100%: pest or weed control at 100 ppm [2] | pest or weed control at 10 ppm ([3]; Puccinia recondita, 10 ppm) | pest or weed control at 50 ppm ([3]; Puccinia recondita, 50 ppm) | pest or weed control at 100 ppm ([3]; Puccinia recondita, 100 ppm) | pest or weed control at 50 ppm [4] | pest or weed control at 100 ppm [4] | pest or weed control at 50 ppm [5] | pest or weed control at 100 ppm [5] | pest or weed control at 10 ppm ([6]; 10 ppm) | pest or weed control at 50 ppm ([6]; 50 ppm) | pest or weed control at 100 ppm ([6]; 100 ppm)
90%: pest or weed control at 10 ppm [2] | pest or weed control at 10 ppm [4]
70%: pest or weed control at 2 ppm [4]
98%: pest or weed control at 50 ppm [2] | pest or weed control at 10 ppm [5] | pest or weed control at 2 ppm ([6]; 2 ppm)

CO/N=C(/C(=O)OC)c1ccccc1CON=C(C)c1ccc(C=C(Br)Br)cc1 [Example 25, methyl-(E)-2-[[[[[2-[4-(2,2-dibromovinyl)phenyl](1-methyl)methylidene]amino]oxy]methyl]phenyl]-2-methoxyiminoacetate]
98%: RSB control value (C.V.) ([5]; 10 ppm, rice sheath blight)
90%: RSB control value (C.V.) ([5]; 2 ppm, rice sheath blight)
35%: CGM control value (C.V.) ([1]; cucumber gray mold rot)
100%: TLB control value (C.V.) ([2]; 10 ppm, tomato late blight) | TLB control value (C.V.) ([2]; 50 ppm, tomato late blight) | TLB control value (C.V.) ([2]; 100 ppm, tomato late blight) | WLR control value (C.V.) ([3]; 2 ppm, wheat leaf rust) | WLR control value (C.V.) ([3]; 10 ppm, wheat leaf rust) | WLR control value (C.V.) ([3]; 50 ppm, wheat leaf rust) | WLR control value (C.V.) ([3]; 100 ppm, wheat leaf rust) | RCB control value (C.V.) ([4]; 2 ppm, rice blast) | RCB control value (C.V.) ([4]; 10 ppm, rice blast) | RCB control value (C.V.) ([4]; 50 ppm, rice blast) | RCB control value (C.V.) ([4]; 100 ppm, rice blast) | RSB control value (C.V.) ([5]; 50 ppm, rice sheath blight) | RSB control value (C.V.) ([5]; 100 ppm, rice sheath blight) | BPM control value (C.V.) ([6]; 2 ppm, barley powdery mildew) | BPM control value (C.V.) ([6]; 10 ppm, barley powdery mildew) | BPM control value (C.V.) ([6]; 50 ppm, barley powdery mildew) | BPM control value (C.V.) ([6]; 100 ppm, barley powdery mildew)
93%: TLB control value (C.V.) ([2]; 2 ppm, tomato late blight)

CNC(=O)/C(=N/OC)c1ccccc1COc1c(OC)ccc(C=C(Br)Br)c1Br [Example 76]
70%: TLB control value (C.V.) ([2]; 2 ppm)
95%: WLR control value (C.V.) ([3]; 2 ppm) | BPM control value (C.V.) ([6]; 2 ppm)
100%: TLB control value (C.V.) ([2]; 100 ppm) | WLR control value (C.V.) ([3]; 10 ppm) | WLR control value (C.V.) ([3]; 50 ppm) | WLR control value (C.V.) ([3]; 100 ppm) | RCB control value (C.V.) ([4]; 50 ppm) | RCB control value (C.V.) ([4]; 100 ppm) | RSB control value (C.V.) ([5]; 50 ppm) | RSB control value (C.V.) ([5]; 100 ppm) | BPM control value (C.V.) ([6]; 10 ppm) | BPM control value (C.V.) ([6]; 50 ppm) | BPM control value (C.V.) ([6]; 100 ppm)
45%: CGM control value (C.V.) [1]
65%: RSB control value (C.V.) ([5]; 2 ppm)
90%: TLB control value (C.V.) ([2]; 10 ppm) | RCB control value (C.V.) ([4]; 10 ppm)
30%: RCB control value (C.V.) ([4]; 2 ppm)
98%: TLB control value (C.V.) ([2]; 50 ppm) | RSB control value (C.V.) ([5]; 10 ppm)

CO/N=C(/C(=O)OC)c1ccccc1COc1c(C)cccc1C=C(Cl)Cl [Example 49, methyl-(E)-2-(2-((2-(2,2-dichlorovinyl)-6-methylphenoxy)methyl)phenyl)-2-methoxyiminoacetate]
97%: pest or weed control at 2 ppm [2]
93%: pest or weed control at 2 ppm [4]
30%: pest or weed control at 100 ppm ([1]; cucumber gray mold rot)
100%: pest or weed control at 50 ppm [2] | pest or weed control at 100 ppm [2] | pest or weed control at 2 ppm ([3]; 2 ppm, wheat leaf rust) | pest or weed control at 10 ppm ([3]; 10 ppm, wheat leaf rust) | pest or weed control at 50 ppm ([3]; 50 ppm, wheat leaf rust) | pest or weed control at 100 ppm ([3]; 100 ppm, wheat leaf rust) | pest or weed control at 10 ppm [4] | pest or weed control at 50 ppm [4] | pest or weed control at 100 ppm [4] | pest or weed control at 50 ppm [5] | pest or weed control at 100 ppm [5] | pest or weed control at 2 ppm ([6]; Hordeum vulgare, 2 ppm, barley powdery mildew) | pest or weed control at 10 ppm ([6]; Hordeum vulgare, 10 ppm, barley powdery mildew) | pest or weed control at 50 ppm ([6]; Hordeum vulgare, 50 ppm, barley powdery mildew) | pest or weed control at 100 ppm ([6]; Hordeum vulgare, 100 ppm, barley powdery mildew)
98%: pest or weed control at 10 ppm [5]
95%: pest or weed control at 2 ppm [5]
99%: pest or weed control at 10 ppm [2]

CNC(=O)/C(=N/OC)c1ccccc1CON=C(C)c1ccc(C=C(Cl)Br)cc1 [Example 38, (E)-2-[[[[[2-[4-(2-bromo-2-chlorovinyl)phenyl](1-methyl)methylidene]amino]oxy]methyl]phenyl]-2-methoxyimino-N-methylacetamide]
80%: TLB control value (C.V.) ([2]; 10 ppm, tomato late blight) | RSB control value (C.V.) ([5]; 2 ppm, rice sheath blight)
98%: RSB control value (C.V.) ([5]; 50 ppm, rice sheath blight) | BPM control value (C.V.) ([6]; 10 ppm, barley powdery mildew)
65%: CGM control value (C.V.) ([1]; cucumber gray mold rot)
30%: TLB control value (C.V.) ([2]; 2 ppm, tomato late blight)
100%: TLB control value (C.V.) ([2]; 50 ppm, tomato late blight) | TLB control value (C.V.) ([2]; 100 ppm, tomato late blight) | WLR control value (C.V.) ([3]; 2 ppm, wheat leaf rust) | WLR control value (C.V.) ([3]; 10 ppm, wheat leaf rust) | WLR control value (C.V.) ([3]; 50 ppm, wheat leaf rust) | WLR control value (C.V.) ([3]; 100 ppm, wheat leaf rust) | RCB control value (C.V.) ([4]; 2 ppm, rice blast) | RCB control value (C.V.) ([4]; 10 ppm, rice blast) | RCB control value (C.V.) ([4]; 50 ppm, rice blast) | RCB control value (C.V.) ([4]; 100 ppm, rice blast) | RSB control value (C.V.) ([5]; 100 ppm, rice sheath blight) | BPM control value (C.V.) ([6]; 50 ppm, barley powdery mildew) | BPM control value (C.V.) ([6]; 100 ppm, barley powdery mildew)
95%: RSB control value (C.V.) ([5]; 10 ppm, rice sheath blight) | BPM control value (C.V.) ([6]; 2 ppm, barley powdery mildew)

CNC(=O)/C(=N/OC)c1ccccc1COc1c(OC)ccc(C=C(Cl)Cl)c1Br [Example 52]
100%: TLB control value (C.V.) ([2]; 10 ppm, tomato late blight) | TLB control value (C.V.) ([2]; 50 ppm, tomato late blight) | TLB control value (C.V.) ([2]; 100 ppm, tomato late blight) | WLR control value (C.V.) ([3]; 2 ppm, wheat leaf rust) | WLR control value (C.V.) ([3]; 10 ppm, wheat leaf rust) | WLR control value (C.V.) ([3]; 50 ppm, wheat leaf rust) | WLR control value (C.V.) ([3]; 100 ppm, wheat leaf rust) | RCB control value (C.V.) ([4]; 10 ppm, rice blast) | RCB control value (C.V.) ([4]; 50 ppm, rice blast) | RCB control value (C.V.) ([4]; 100 ppm, rice blast) | RSB control value (C.V.) ([5]; 10 ppm, rice sheath blight) | RSB control value (C.V.) ([5]; 50 ppm, rice sheath blight) | RSB control value (C.V.) ([5]; 100 ppm, rice sheath blight) | BPM control value (C.V.) ([6]; 10 ppm, barley powdery mildew) | BPM control value (C.V.) ([6]; 50 ppm, barley powdery mildew) | BPM control value (C.V.) ([6]; 100 ppm, barley powdery mildew)
45%: CGM control value (C.V.) ([1]; cucumber gray mold rot)
95%: TLB control value (C.V.) ([2]; 2 ppm, tomato late blight) | RSB control value (C.V.) ([5]; 2 ppm, rice sheath blight)
99%: BPM control value (C.V.) ([6]; 2 ppm, barley powdery mildew)
70%: RCB control value (C.V.) ([4]; 2 ppm, rice blast)
